Two molecules from US5925571A, “Method of testing immune competency” (Oxi-Gene, Inc., priority 1997, dated 1999) can be followed below.

Assay [1] relates to ADPRT (adenosine diphosphate ribosyl transferase) in HML. Put plainly: PMA induced ADPRT activity in HML treated with HOCl or chloramine T (permeabilized cell radiometric assay). The format is cell-based, human. Particulars: doses of 80 μM; 30 min at 37° C., then PMA 25 ng/ml for 30 min; versus zero-dose control; FIG. 2. Here is the method:
(§1) ADPRT assay.--The procedure was adapted from the permeabilized cell technique of Berger (Methods Cell Biol. 20:325-340, 1988) with modifications as previously described (Pero et al, Carcinogenesis 10:1657-64, 1989). Duplicate samples of 1×10^6 HML in the presence of 0 to 4×10^6 neutrophils were cultured in 1 ml of KRPG buffer for 30 min at 37° C. in the presence of PMA (phorbol-12-myristate-13-acetate, 25 ng/ml). After this co-incubation, the HML+ neutrophil mixtures were harvested by centrifugation, permeabilized, and ADPRT activity determined by radiometric procedure as described in detail elsewhere (Pero et al, Carcinogenesis 10:1657-64, 1989). […]
The effect of various dosage levels of chloramine T and HOCl on PMA induced ADPRT activity in HML was investigated utilizing the procedures described above for such tests, measuring the PMA induced ADPRT activity for HML subjected to the various dosages, and comparing the values obtained with measured control values of PMA induced ADPRT activity in HML from the same source but with zero dosages of chloramine T and HOCl.

For assay [2], the system named is ADPRT (ADP-ribosylation) in HML. Put plainly: HML + neutrophil co-culture exposed to PMA: HML ADP-ribosylation versus HOCl production. Type of assay: cell-based, human. Particulars: 1×10^6 HML with 0 to 4×10^6 neutrophils, PMA 25 ng/ml, 30 min at 37° C.; FIG. 1. Here is the method:
HOCl measurement.--Mixed cultures of HML+ neutrophils were assayed for the production of HOCl in the extracellular conditioned medium by removal of the cells by centrifugation following the incubation period, and immediately trapping the produced HOCl with taurine (20 mM). Taurine chloramine was then quantified spectrophotometrically by using the conversion of I^- to I2 (E=2.29×10^4 M^-1 cm^-1). Details of this procedure have been described by Weiss et al (J. Clin. Invest. 70:598-607, 1982).
as §1
This Example establishes that human phagocytes (i.e. neutrophils) produce physiologic relevant concentrations of endogenous ADPRT inhibitors. […] The respiratory burst induced by PMA exposure of neutrophils was monitored by HOCl production. […]

Take `OCl` [HOCl]: the “inhibition of HML ADPRT activity” value in assay [1] was greater than 80%. For the same molecule, the “produced concentration sufficient to cause inhibition of HML ADP-ribosylation” value in assay [2] was “about 80 μM”.

In the case of `Cc1ccc(S(=O)(=O)[N-]Cl)cc1.[Na+]` [N-chloramine, chloramine T], in assay [1], the “inhibition of HML ADPRT activity” value is listed as greater than 80%. For the same molecule, in assay [2], the “produced concentration sufficient to cause inhibition of HML ADP-ribosylation” value is “about 80 μM”.
